# Results: patent publication US10696677B2 (Research Triangle Institute, priority 2016, dated 2020)
# Like-named read-outs stand apart in the source and are kept apart here.
# Assays:
# MDCK = MDCK BBB Assay; format: in vitro ADME; conditions: for % Permeable: MDCK BBB assay
# hCB1 = hCB1 (Homo sapiens, UniProt P21554); assay: radioligand displacement binding at CB1 (membranes of CHO-K1 cells over-expressing receptor)
# Protocol: (§1) All compounds were characterized by H^1 NMR and evaluated using a calcium mobilization assay. […] Further characterization of select compounds was performed using radioligand displacement of [3H]1 and equilibrium dissociation constant (Ki) values were determined.
# hCB2 = hCB2 (Homo sapiens, UniProt P34972); assay: radioligand displacement binding at CB2 ([3H]CP55940, membranes of CHO-K1 cells over-expressing receptor)
# hCB2, sequence (P34972 whole entry): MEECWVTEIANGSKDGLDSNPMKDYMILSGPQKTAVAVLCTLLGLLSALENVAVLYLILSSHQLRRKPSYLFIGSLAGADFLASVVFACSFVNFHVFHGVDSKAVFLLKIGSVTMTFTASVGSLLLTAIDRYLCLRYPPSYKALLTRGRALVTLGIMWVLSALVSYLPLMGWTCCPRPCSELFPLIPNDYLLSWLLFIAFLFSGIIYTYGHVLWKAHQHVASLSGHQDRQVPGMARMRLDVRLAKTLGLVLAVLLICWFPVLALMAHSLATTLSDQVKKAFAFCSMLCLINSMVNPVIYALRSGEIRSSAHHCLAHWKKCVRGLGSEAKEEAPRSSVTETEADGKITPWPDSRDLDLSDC
# Protocol: as §1
# hCB1, sequence (P21554 whole entry): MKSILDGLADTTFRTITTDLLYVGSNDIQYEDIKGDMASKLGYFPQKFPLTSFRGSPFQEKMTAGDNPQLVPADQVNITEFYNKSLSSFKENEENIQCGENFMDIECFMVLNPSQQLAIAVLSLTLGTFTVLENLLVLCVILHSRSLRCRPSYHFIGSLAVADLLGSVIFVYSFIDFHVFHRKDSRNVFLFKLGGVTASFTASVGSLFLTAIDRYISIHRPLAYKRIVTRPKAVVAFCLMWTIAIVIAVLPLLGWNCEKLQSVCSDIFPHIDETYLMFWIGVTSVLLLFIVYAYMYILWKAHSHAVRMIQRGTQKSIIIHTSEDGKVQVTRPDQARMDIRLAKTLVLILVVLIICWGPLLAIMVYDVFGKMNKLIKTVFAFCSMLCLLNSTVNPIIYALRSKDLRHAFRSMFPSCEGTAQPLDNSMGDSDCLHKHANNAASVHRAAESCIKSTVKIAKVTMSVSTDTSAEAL
melting point,SMILES,further results
175 to 177 °C,CC1(NC(=O)NC2CCC(F)(F)CC2)CCN(c2ncnc3c2nc(-c2ccccc2Cl)n3-c2ccc(Cl)cc2)CC1,–
183 to 184 °C,"O=S(=O)(NC1CCN(c2ncnc3c2nc(-c2ccccc2Cl)n3-c2ccc(Cl)cc2)CC1)c1ccc(F)c(F)c1 [Compound 7, N-{1-[8-(2-Chlorophenyl)-9-(4-chlorophenyl)-9H-purin-6-yl]piperidin-4-yl}-3,4-difluorobenzene-1-sulfonamide]",% Permeable (MDCK): 0%; MDCK BBB Assay (Basolateral/Apical Peak Area Ratio) Mean (MDCK; MDCK cells): 0
212 to 213 °C,"O=S(=O)(NC1CCN(c2ncnc3c2nc(-c2ccccc2Cl)n3-c2ccc(OC(F)F)nc2)CC1)c1ccc(F)c(F)c1 [Compound 8, N-{1-[8-(2-Chlorophenyl)-9-[6-(difluoromethoxy)pyridin-3-yl]-9H-purin-6-yl]piperidin-4-yl}-3,4-difluorobenzene-1-sulfonamide]",–
214 to 215 °C,"O=S(=O)(NC1CCN(c2ncnc3c2nc(-c2ccccc2Cl)n3-c2ccc(C(F)(F)F)nc2)CC1)c1ccc(F)c(F)c1 [Compound 10, N-{1-[8-(2-Chlorophenyl)-9-[6-(trifluoromethyl)pyridin-3-yl]-9H-purin-6-yl]piperidin-4-yl}-3,4-difluorobenzene-1-sulfonamide]",–
180 to 182 °C,"Cc1cc(-n2c(-c3ccccc3Cl)nc3c(N4CCC(NS(=O)(=O)c5ccc(F)c(F)c5)CC4)ncnc32)no1 [Compound 11, N-{1-[8-(2-Chlorophenyl)-9-(5-methyl-1,2-oxazol-3-yl)-9H-purin-6-yl]piperidin-4-yl}-3,4-difluorobenzene-1-sulfonamide]",–
206 to 208 °C,"Cn1ccc(-n2c(-c3ccccc3Cl)nc3c(N4CCC(NS(=O)(=O)c5ccc(F)c(F)c5)CC4)ncnc32)n1 [Compound 13, N-{1-[8-(2-Chlorophenyl)-9-(1-methyl-1H-pyrazol-3-yl)-9H-purin-6-yl]piperidin-4-yl}-3,4-difluorobenzene-1-sulfonamide]",–
192 to 193 °C,"CCCCC(=O)NC1CCN(c2ncnc3c2nc(-c2ccccc2Cl)n3-c2ccc(C(F)(F)F)nc2)CC1 [Compound 14, N-{1-[8-(2-Chlorophenyl)-9-[6-(trifluoromethyl)pyridin-3-yl]-9H-purin-6-yl]piperidin-4-yl}pentanamide]",–
230 to 232 °C,"O=C(NCC1CCCCC1)NC1CCN(c2ncnc3c2nc(-c2ccccc2Cl)n3-c2ccc(C(F)(F)F)nc2)CC1 [Compound 16, 3-{1-[8-(2-Chlorophenyl)-9-[6-(trifluoromethyl)pyridin-3-yl]-9H-purin-6-yl]piperidin-4-yl}-1-(cyclohexylmethyl)urea]",–
141 to 143 °C,"O=C(NCC1CCCCC1)NC1CCN(c2ncnc3c2nc(-c2ccccc2Cl)n3-c2ccc(OC(F)F)nc2)CC1 [Compound 17, 3-{1-[8-(2-Chlorophenyl)-9-[6-(difluoromethoxy)pyridin-3-yl]-9H-purin-6-yl]piperidin-4-yl}-1-(cyclohexylmethyl)urea]",–
–,"O=C(Nc1ccccc1)NC1CCN(c2ncnc3c2nc(-c2ccccc2Cl)n3-c2ccc(Cl)cc2)CC1 [Compound 18, 3-{1-[8-(2-Chlorophenyl)-9-(4-chlorophenyl)-9H-purin-6-yl]piperidin-4-yl}-1-phenylurea]",% Permeable (MDCK): 0%
227 to 228 °C,"O=C(Nc1ccccc1F)NC1CCN(c2ncnc3c2nc(-c2ccccc2Cl)n3-c2ccc(C(F)(F)F)nc2)CC1 [Compound 20, 3-{1-[8-(2-Chlorophenyl)-9-[6-(trifluoromethyl)pyridin-3-yl]-9H-purin-6-yl]piperidin-4-yl}-1-(2-fluorophenyl)urea]",–
140 to 142 °C,"O=C(Nc1ccccc1F)NC1CCN(c2ncnc3c2nc(-c2ccccc2Cl)n3-c2ccc(OC(F)F)nc2)CC1 [Compound 21, 3-{1-[8-(2-Chlorophenyl)-9-[6-(difluoromethoxy)pyridin-3-yl]-9H-purin-6-yl]piperidin-4-yl}-1-(2-fluorophenyl)urea]",–
140 to 142 °C,"O=C(Nc1ccc(F)cc1F)NC1CCN(c2ncnc3c2nc(-c2ccccc2Cl)n3-c2ccc(Cl)cc2)CC1 [Compound 22, 3-{1-[8-(2-Chlorophenyl)-9-(4-chlorophenyl)-9H-purin-6-yl]piperidin-4-yl}-1-(2,4-difluorophenyl)urea]",–
140 to 142 °C,"O=C(Nc1ccc(C(F)(F)F)nc1)NC1CCN(c2ncnc3c2nc(-c2ccccc2Cl)n3-c2ccc(Cl)cc2)CC1 [Compound 24, 3-{1-[8-(2-Chlorophenyl)-9-(4-chlorophenyl)-9H-purin-6-yl]piperidin-4-yl}-1-[6-(trifluoromethyl)pyridin-3-yl]urea]",–
–,"O/N=C(\c1ccc(F)cc1)C1CCN(c2ncnc3c2nc(-c2ccccc2Cl)n3-c2ccc(Cl)cc2)CC1 [Compound 28, (Z)-{1-[8-(2-chlorophenyl)-9-(4-chlorophenyl)-9H-purin-6-yl]piperidin-4-yl}(4-fluorophenyl)methanone oxime]",Ki (hCB1): 3 nM; Ki (hCB2): 11000 nM
230 to 231 °C,Cc1cc(NC(=O)N2CCN(c3ncnc4c3nc(-c3ccccc3Cl)n4-c3ccc(Cl)cc3)CC2)no1 [Compound 50],–

melting point,SMILES,further results
–,"CC(C)(C)OC(=O)N1CCN(c2ncnc3c2nc(-c2ccccc2Cl)n3-c2ccc(Cl)cc2)CC1 [Compound 58, tert-Butyl 4-[8-(2-Chlorophenyl)-9-(4-chlorophenyl)-9H-purin-6-yl]piperazine-1-carboxylate]",Ki (hCB2): 3350 nM; % Permeable (MDCK): 3%
–,"O=C(C1COc2ccccc2O1)N1CCN(c2ncnc3c2nc(-c2ccccc2Cl)n3-c2ccc(Cl)cc2)CC1 (stereo not shown) [Compound 61, 8-(2-Chlorophenyl)-9-(4-chlorophenyl)-6-[4-(2,3-dihydro-1,4-benzodioxin-2-ylcarbonyl)piperazin-1-yl]-9H-purine]","Ki (hCB1): 5.3 nM; Ki (hCB2; read-out: Binding affinity (Ki) at hCB2, displacement of [3H]CP55940, CHO-K1 membranes, average of 3-6 measurements): 606 nM; % Permeable (MDCK): 0%"
–,"Clc1ccc(-n2c(-c3ccccc3Cl)nc3c(N4CCN(c5ccccn5)CC4)ncnc32)cc1 [Compound 67, 8-(2-Chlorophenyl)-9-(4-chlorophenyl)-6-(4-pyridin-2-ylpiperazin-1-yl)-9H-purine]",% Permeable (MDCK): 0%
–,"COc1ccc(N2CCN(c3ncnc4c3nc(-c3ccccc3Cl)n4-c3ccc(Cl)cc3)CC2)cc1 [Compound 72, 8-(2-Chlorophenyl)-9-(4-chlorophenyl)-6-[4-(4-methoxyphenyl)piperazin-1-yl]-9H-purine]",% Permeable (MDCK): 0%
–,"N#Cc1ccccc1N1CCN(c2ncnc3c2nc(-c2ccccc2Cl)n3-c2ccc(Cl)cc2)CC1 [Compound 74, 2-{4-[8-(2-Chlorophenyl)-9-(4-chlorophenyl)-9H-purin-6-yl]piperazin-1-yl}benzonitrile]",% Permeable (MDCK): 0%
127 to 128 °C,"N#Cc1ccccc1CN1CCN(c2ncnc3c2nc(-c2ccccc2Cl)n3-c2ccc(Cl)cc2)CC1 [Compound 75, 6-[4-(2-Cyanobenzyl)piperazin-1-yl]-8-(2-chlorophenyl)-9-(4-chlorophenyl)-9H-purine]",–
–,"Clc1ccc(CN2CCN(c3ncnc4c3nc(-c3ccccc3Cl)n4-c3ccc(Cl)cc3)CC2)cc1 [Compound 77, 6-[4-(4-Chlorobenzyl)piperazin-1-yl]-8-(2-chlorophenyl)-9-(4-chlorophenyl)-9H-purine]",% Permeable (MDCK): ~100%
–,"Cc1ccccc1CN1CCN(c2ncnc3c2nc(-c2ccccc2Cl)n3-c2ccc(Cl)cc2)CC1 [Compound 100, 8-(2-Chlorophenyl)-9-(4-chlorophenyl)-6-[4-(2-methylbenzyl)piperazin-1-yl]-9H-purine]",Ki (hCB2): 1250 nM
119 to 121 °C,"FC(F)(F)c1ccccc1CN1CCN(c2ncnc3c2nc(-c2ccccc2Cl)n3-c2ccc(Cl)cc2)CC1 [Compound 111, 8-(2-Chlorophenyl)-9-(4-chlorophenyl)-6-{4-[2-(trifluoromethyl)benzyl]piperazin-1-yl}-9H-purine]",–
138 to 139 °C,"Cc1c(CN2CCN(c3ncnc4c3nc(-c3ccccc3Cl)n4-c3ccc(Cl)cc3)CC2)cnn1C [Compound 114, 8-(2-Chlorophenyl)-9-(4-chlorophenyl)-6-{4-[(1,5-dimethyl-1H-pyrazol-4-yl)methyl]piperazin-1-yl}-9H-purine]",–
–,"N=C(Nc1ccc(F)cc1)N1CCN(c2ncnc3c2nc(-c2ccccc2Cl)n3-c2ccc(Cl)cc2)CC1 [Compound 116, 4-[8-(2-chlorophenyl)-9-(4-chlorophenyl)-9H-purin-6-yl]-N-(4-fluorophenyl)piperazine-1-carboximidamide]",Ki (hCB2): > 6000 nM
228 to 229 °C,"O=C(NC1CCN(c2ncnc3c2nc(-c2ccccc2Cl)n3-c2ccc(Cl)cc2)CC1)NC1CCC(F)(F)CC1 [Compound 124, 3-{1-[8-(2-Chlorophenyl)-9-(4-chlorophenyl)-9H-purin-6-yl]piperidin-4-yl}-1-(4,4-difluorocyclohexyl)urea]",–
160 to 162 °C,"CC1(NC(=O)NC2CCN(c3ncnc4c3nc(-c3ccccc3Cl)n4-c3ccc(Cl)cc3)CC2)CCC(F)(F)CC1 [Compound 126, 3-{1-[8-(2-Chlorophenyl)-9-(4-chlorophenyl)-9H-purin-6-yl]piperidin-4-yl}-1-(4,4-difluoro-1-methylcyclohexyl)urea]",–
135 to 137 °C,"O=C(NCC1CCC(F)(F)CC1)NC1CCN(c2ncnc3c2nc(-c2ccccc2Cl)n3-c2ccc(Cl)cc2)CC1 [Compound 127, 3-{1-[8-(2-Chlorophenyl)-9-(4-chlorophenyl)-9H-purin-6-yl]piperidin-4-yl}-1-[(4,4-difluorocyclohexyl)methyl]urea]",–
184 to 185 °C,"O=C(NCc1ccc(F)cc1)NC1CCN(c2ncnc3c2nc(-c2ccccc2Cl)n3-c2ccc(Cl)cc2)CC1 [Compound 128, 3-{1-[8-(2-Chlorophenyl)-9-(4-chlorophenyl)-9H-purin-6-yl]piperidin-4-yl}-1-[(4-fluorophenyl)methyl]urea]",–
